In patent US20130165368A1, “ANTIMICROBIAL COMPOUNDS” (priority 2010, published 2013):
Like-named read-outs stand apart in the source and are kept apart here.

Experiments:
Assay type in all cases: cell-based
[1] = test system: Staphylococcus aureus; assay: MIC agar dilution, micro-organism 13 (6571); conditions: Staphylococcus aureus, Staphylococcus aureus 6571, read-out: MIC
Description: (§1) Throughout the period of testing the microbial strains were subcultured and incubated for 18-20 hours at 37° C. on a weekly basis. Horse blood agar plates were used to sustain the micro-organisms both prior to and throughout testing. The alkoxylated alkanols listed in Table II below were obtained (these are obtainable from Sigma-Aldrich Company Ltd, Dorset, England), each having a GC purity of at least 97%.
(§2) Molar equivalent concentrations were used to allow comparison between compounds of differing molecular mass. Due to weighing difficulties, any compound in solid form was melted in a water bath prior to dilution. To make ten-times strength concentrations, which takes into account agar dilution, 0.0352 mmol of each compound was weighed into plastic universal bottles and 4 mL of sterile distilled water (SDW) was added. To produce a homogenous emulsion the universals were vortexed; once achieved the emulsions were serial diluted by adding 2 mL to 2 mL of SDW.
(§3) Myristyl alcohol and lauryl alcohol were re-weighed and dissolved in 25 μL of the polar solvent 1-methyl-2-pyrrolidone (M6762; Sigma-Aldrich) in sterile glass universals due to an inability to achieve an even suspension. To maintain an even emulsion in the presence of SDW 37.5 μL of the non-ionic detergent Tween 20 (P1379, Sigma-Aldrich) was also added. 3.9375 mL of SDW was added to these, to create a 4 mL volume; they were vortexed and diluted as before.
(§4) For every 100 mL of Isosensitest agar (IST) (CM0471; Oxoid, Basingstoke, England), 3.1 g of the IST powder was added to 100 mL SDW (as per manufacturer's instructions) and sterilised for 15 minutes at 121° C. Once sterilised, the molten agar was cooled to 50° C. in a water-bath. Subsequently 4.8 g of CCEY powder (BC2160; Bioconnections, Wetherby, England), also known as Brazier's medium, was added to 100 mL SDW for every 100 mL of agar needed. This was then sterilised for 15 minutes at 121° C. Once sterilised the molten agar was cooled to 50° C. in a water-bath and 4 mL of egg-yolk emulsion (S2073; TCS Biosciences Ltd, Buckingham, United Kingdom) and 1 mL of lysed defibrinated horse blood (HB035; TCS Biosciences Ltd, Buckingham, United Kingdom) were also added for every 100 mL needed. Horse blood lysis is achieved by dilution to half concentration with SDW; when fully lysed the mixture will turn dark red in colour.
(§5) 18 mL agar was added to each universal and then poured into sterile Petri dishes. This step creates a 1/10 dilution resulting in agar plates of the required strength. Control plates for each set of strains were created by adding 18 mL of agar to 2 mL of SDW.
(§6) Suspensions of each bacterial species were prepared with a density equal to that of a 0.5 McFarland standard using a densitometer. All suspensions were made using sterile distilled water and fresh 18-20 hour cultures. As a 0.5 McFarland standard contains 1.5×10^8 CFU/mL and the multipoint inoculators applies 1 μL spots of liquid, each bacterial suspension was diluted 1/15 (20 μL suspension to 280 μL sterile distilled water).
(§7) Bacterial suspensions were prepared from fresh 18-24 hour cultures as previously described. 1 μL of each strain was inoculated onto all 100 agar plates containing a different chemical concentration and the 2 control plates. This was done using a multipoint inoculator which inoculates 20 strains per plate. All plates were incubated for 22 hours at 37° C. in aerobic conditions.
(§8) Each plate was examined for bacterial growth after 22 and 48 hours, with each being incubated in between examinations. A positive result was recorded as growth of ≧10 colonies. A negative result was recorded as growth of <10 colonies as this is equivalent to 99.9% inhibition. The lowest concentration of chemical that inhibited growth was recorded as the MIC. The results are recorded in Table IV below, where the numbers are quoted in mmol/L. […]

[2] = test system: Gram negative bacteria, Gram positive bacteria and pathogenic yeasts; assay: MIC agar dilution, summary statements over the micro-organisms tested (Tables I, IX); conditions: over the micro-organisms tested or some of them; read-out: MIC
Source text: For a better understanding, the present invention will now be more particularly described, by way of non-limiting example only, as follows. The micro-organisms shown in Table I overleaf were acquired from the National Collection of Type Cultures (NCTC), Colindale, United Kingdom; the American Type Culture Collection (ATCC), Manassas, United States and the National Collection of Pathogenic Fungi (NCPF), Colindale, United Kingdom. They include Gram negative bacteria, Gram positive bacteria and pathogenic yeasts.
as §1, §2, §3, §4, §5, §6
Bacterial suspensions were prepared from fresh 18-24 hour cultures as previously described. 1 μL of each strain was inoculated onto all 100 agar plates containing a different chemical concentration and the 2 control plates. This was done using a multipoint inoculator which inoculates 20 strains per plate. All plates were incubated for 22 hours at 37° C. in aerobic conditions. […]

[3] = test system: Bacillus subtilis; assay: MIC agar dilution, micro-organism 18 (9372); conditions: Bacillus subtilis 9372, read-out: MIC
Description: as §1, §2, §3, §4, §5, §6, §7, §8

[4] = test system: Staphylococcus aureus (MRSA); assay: MIC agar dilution, micro-organism 12 (11939); conditions: Staphylococcus aureus, MRSA, Staphylococcus aureus (MRSA) 11939, read-out: MIC
Description: as §1, §2, §3, §4, §5, §6, §7, §8

[5] = test system: Enterococcus faecium; assay: MIC agar dilution, micro-organism 16 (7171); conditions: Enterococcus faecium 7171, read-out: MIC
Description: as §1, §2, §3, §4, §5, §6, §7, §8

[6] = test system: Steptococcus pyogenes; assay: MIC agar dilution, micro-organism 11 (8306); conditions: Steptococcus pyogenes 8306, read-out: MIC
Description: as §1, §2, §3, §4, §5, §6, §7, §8

[7] = test system: Candida albicans; assay: MIC agar dilution, micro-organism 19 (90028); conditions: Candida albicans 90028, read-out: MIC
Description: as §1, §2, §3, §4, §5, §6, §7, §8

[8] = test system: Listeria monocytogenes; assay: MIC agar dilution, micro-organism 15 (11994); conditions: Listeria monocytogenes 11994, read-out: MIC
Description: as §1, §2, §3, §4, §5, §6, §7, §8

[9] = test system: Providencia rettgeri; assay: MIC agar dilution, micro-organism 3 (7475); conditions: Providencia rettgeri 7475, read-out: MIC
Description: as §1, §2, §3, §4, §5, §6, §7, §8

[10] = test system: Enterococcus faecalis; assay: MIC agar dilution, micro-organism 17 (775); conditions: Enterococcus faecalis 775, read-out: MIC
Description: as §1, §2, §3, §4, §5, §6, §7, §8

[11] = test system: Escherichia coli; assay: MIC agar dilution, micro-organism 1 (10418); conditions: Escherichia coli 10418, read-out: MIC
Description: as §1, §2, §3, §4, §5, §6, §7, §8

[12] = test system: Staphylococcus epidermidis; assay: MIC agar dilution, micro-organism 14 (11047); conditions: Staphylococcus epidermidis 11047, read-out: MIC
Description: as §1, §2, §3, §4, §5, §6, §7, §8

[13] = test system: Candida glabrata; assay: MIC agar dilution, micro-organism 20 (3943); conditions: Nakaseomyces glabratus, Candida glabrata 3943, read-out: MIC
Description: as §1, §2, §3, §4, §5, §6, §7, §8

Measured: MIC

CCCCCCCCCCO [D0, 1-Decanol, reference compound]
> 880 µM: [1]; 22 h, 22 hrs | [1]; 48 h, 48 hrs | [2] | [3]; 22 hrs | [3]; 48 hrs | [4]; 22 h, 22 hrs | [4]; 48 h, 48 hrs | [5]; 22 hrs | [5]; 48 hrs | [6]; 22 h, 22 hrs | [6]; 48 h, 48 hrs | [7]; 22 hrs | [7]; 48 hrs | [8]; 22 hrs | [8]; 48 hrs | [9]; 22 hrs | [9]; 48 hrs | [10]; 22 hrs | [10]; 48 hrs | [11]; 22 hrs | [11]; 48 hrs | [12]; 22 hrs | [12]; 48 hrs | [13]; 22 h, 22 hrs | [13]; 48 h, 48 hrs

CCCCCCCCCCOCCO [D1, Ethylene Glycol Monodecyl Ether, reference compound]
> 880 µM: [1]; 22 h, 22 hrs | [1]; 48 h, 48 hrs | [2] | [3]; 22 hrs | [3]; 48 hrs | [4]; 22 h, 22 hrs | [4]; 48 h, 48 hrs | [5]; 22 hrs | [5]; 48 hrs | [6]; 22 h, 22 hrs | [6]; 48 h, 48 hrs | [7]; 22 hrs | [7]; 48 hrs | [8]; 22 hrs | [8]; 48 hrs | [9]; 22 hrs | [9]; 48 hrs | [10]; 22 hrs | [10]; 48 hrs | [11]; 22 hrs | [11]; 48 hrs | [12]; 22 hrs | [12]; 48 hrs | [13]; 22 h, 22 hrs | [13]; 48 h, 48 hrs
